We go through one compound from ChEMBL document CHEMBL6074655, “Vindeburnol: A natural product-inspired chemical tool for central nervous system drug design” (Eur J Med Chem, 2024).

Data set [1] in a line: Toxicity in male mouse assessed as mortality rate at 50 mg/kg, iv. Type of data set: organism-based. Conditions: in vivo.
Data set [2] is described as follows: Toxicity in female mouse assessed as mortality rate at 50 mg/kg, iv. The following applies: in vivo. Type of data set: organism-based.

A word on the mortality: it is the share of the test organisms that died.

As for `O[C@@H]1C[C@H]2CCCN3CCc4c(n1c1ccccc41)[C@H]23`, the mortality in data set [1] is 70%; in data set [2], 64%.
